Results reported in patent US9351971B2, “Substituted 2,2′-biphenazines for treating diseases” (Eutropics Pharmaceuticals, Inc., priority 2010, dated 2016).
Values joined by “and” are separate entries in the source; they are usually repeats but may differ in a detail not shown here. Identical values can stand only once. “Also recorded” adds a separate entry of the source. Like-named read-outs stand apart in the source and are kept apart here. Values belong to the compound of their own block, whether it stands above or below them.

Tests used:
[1] = test system: NCI-H929 multiple myeloma cell line; test: Cell viability MTS assay, NCI-H929; format: cell-based; details: Homo sapiens, 48 hours
Experimental: (§1) The lymphoid derived cell lines DHL-6 and DHL-10 were obtained from Anthony Letai of the Dana Father Cancer Research Institute, Boston, Mass. The […] derived cell line NCP-H929 was obtained irons, the NIH/NCI cell repository. AML-3 cells were obtained from Dr. Michael Andreef (MD Anderson Cancer Center, Houston, Tex.). Cells were grown in RPMI 1640 medium (GIBCO-BRL) supplemented with Pen-strep-glutamine (Gibco 10378) and 5% fetal bovine serum.
(§2) Cells were expanded in tissue culture in appropriate media and then subcultured into 96-well plates at a seeding density of 20,000-40,000 cells per well, and cells were treated with one or more compounds that were titrated info appropriate medium with FCS. Cell lines were treated with compound A at concentrations ranging from 25 μM to 25 nM. The BH3-mimetic obatoclax (Nguyen M et al. (2007), Proc. Natl. Acad. Sci. USA 104:19512-19517) was also tested against the SUDHL-6, SUDHL-10, and NCI-H929 cell lines. Cells were treated for 48 hours and scored for viability using the MTS assay (Promega). Growth inhibition was indicated as a percentage of control cell growth. Growth was determined by measuring the A570 (control cells)—A570 (treated cells)/A570 (control cells). EC50 values were calculated using Graphpad Prizm software.

[2] = test system: SUDHL-6 lymphoid cell line; test: Cell viability MTS assay, SUDHL-6; format: cell-based; details: Homo sapiens, SU-DHL-6, 48 hours
Experimental: as §1, §2

SUDHL-10 cell line = test: Cell viability MTS assay, SUDHL-10 (Bax/Bak deficient); format: cell-based, human; details: Homo sapiens, SU-DHL10, 48 hours, MTS assay, Bax/Bak deficient cell line
Experimental: as §1, §2

Mcl-1 = biological target: T1, Mcl-1 (Homo sapiens, UniProt Q07820); test: Fluorescence polarization assay, Bim BH3 peptide binding to GST-Mcl-1
T1 construct: made in house; host or cells: E. coli
Excerpt: (§3) A nineteen amino acid peptide, corresponding to the BH3 domain of Bim, with the sequence FITC-GGGIAQELRRIGDEFNAY (SEQ ID NO: 1) was labeled with the tluorophore FITC according to the manufacturer's instructions (Molecular Probes, Eugene, Oreg.). This sequence was identified as being able to bind to purified Bcl-xL protein (Sattler et al. (1997) Science 275(5302): 983-86) and to have biological activity in cells (Holinger et al. J. Biol. Chem. 274; 13298-1330).
(§4) In addition, recombinant GST -Mcl-1 and GST-Bcl-xL fusion proteins were generated in E.coli and purified using glutathione-sepharose beads using conventional techniques known to those skilled in the fields of biochemistry and molecular biology, (methods for preparation are described in Strategies for Protein Purification and Characterization, Marshak, D, Kadonga, J, Burgess R, Knuth, M, Brennan, W, Sue-Hwa, L, CSH press, Cold Spring Harbor, N.Y.). Binding of the recombinant proteins to the fluorescent Bim BH3 domain was confirmed by titration of increasing concentrations of the recombinant proteins against a constant amount of labeled Bim peptide (16.65 nM). Quantitation of binding was accomplished by FP assay with mP measurements made on the Analyst-GT reader (Molecular Devices, Sunnyvale, Calif.).
Further, the ability of compound A to disrupt the interaction between the fluorescent Bim BH3 peptide and the two fusion proteins was assessed using a fluorescence polarization assay. The Bim peptide (in solution at 4 nano-Molar) and either GST-Mcl-1 (in solution at 12.5 nM) or GST-Bcl-xL (in solution at 11.8 nM) were first combined together in phosphate buttered saline buffer, and then the compound solution in DMSO was added to final concentrations ranging from 10 μM to 0.1 nM). Normally the unbound Bim polypeptide results in polarization of 5 mP units. Upon binding of the GST-Bcl-xL and GST-Mcl-1 fusion protein, polarization increased to 100 mP units.
(§5) Experiments are performed using the fluorescence polarization assay as described in Example 2. Either Bcl-xL or Mcl-1 fusion proteins were titrated and maximum mp shift indicate binding concentrations for drug titration studies, as described in Example 2. Compound II-19, was titrated from 10 μM to 0.1 nM in 2 fold serial dilution into the peptide/protein solution. The IC50 for blocking each BH3 peptide from Mcl-1 are assessed using FP, as described in Example 2.
as §5, with “Either GST-Bcl-xL” for “Either Bcl-xL”, “or GST-Mcl-1” for “or Mcl-1”, “Compound II-20,” for “Compound II-19,”, “in 2-fold” for “in 2 fold”

Bcl-xL = biological target: T2, Bcl-xL (Homo sapiens, UniProt Q07817); test: Fluorescence polarization assay, Bim BH3 peptide binding to GST-Bcl-xL; details: Bim-BH3-FITC peptide, read-out: IC50, inhibition of Bim-BH3 peptide binding to Bcl-xL
T2 construct: made in house; host or cells: E. coli
Excerpt: as §3, §4
Further, the ability of compound A to disrupt the interaction between the fluorescent Bim BH3 peptide and the two fusion proteins was assessed using a fluorescence polarization assay. […]
(§6) Experiments are performed using the fluorescence polarization assay as described in Example 2. […] The IC50 for blocking each BH3 peptide from Mcl-1 are assessed using FP, as described in Example 2.
as §6

[3] = Dose escalation study in SCID mice; format: in vivo; details: 60 mg/kg
Experimental: Compound A was tested in SCID mice at SRI International, Menlo Park, Calif. A dose escalation study determined that that the high dose of 60 mg/kg was well-tolerated and could be safely used for the xenograft study for all 3 test articles.

Microsome stability = format: in vitro ADME
[4] = Pharmacokinetics of compound A in the mouse; format: in vivo; details: for plasma clearance: i.p.; for half-life: plasma, ip
Experimental: Pharmacokinetic studies were conducted on compound A to assess plasma clearance and distribution in the mouse. Compound A was administered i.p. (as in the xenograft study) at 10 mg/kg.
Pharmacokinetic studies were conducted on compound A to assess plasma clearance and distribution in the mouse. Compounds were administered i.p. (as in the xenograft study) at 19 mg/kg.

CCRF-CEM cells = test: CCRF-CEM leukemia xenograft study in SCID mice; format: in vivo, mouse; details: 60 mg/kg I.P. 5x/week
Experimental: The T Lymphoblastic Leukemic Cell Line CCRF-CEM was purchased from American Type Culture Consortium (ATCC). These cells were maintained in RPMI-1640 medium supplemented with 10% of fetal bovine serum, 2 mM glutamine, and 1 mM sodium pyruvate. The cells were cultured at 37° C. in 95% air/5% CO2 and 100% humidity. Medium in the culture was changed every 48 h and cells were passaged weekly.
For cell implantation to mice, cells were harvested by centrlfugation. Cell pellets were resuspended in PBS and counted using a hemacytometer and Trypan Blue dye to measure the number of viable cells in the suspension. The harvested cells were washed once with PBS and resuspended in serum-free medium at a density of 1×10^7 cells/100 μl.
For this xenograft study, animals were divided into 4 groups of 10 mice each. Groups were treated with test compounds by IP Injection at 60 mg/kg with or vehicle control.
Mice were inoculated with the CCRF-CEM cells (10,000,000 cells) were by tail vein injection. The cell suspensions had the tendency to form clumps. Therefore, during cell inoculation, the cell suspensions had to be mixed well before drawing into the syringe. Gauge 28 needles were used for the injection.
Test articles were dissolved in a mixture of DMSO/Cremophor/water (10:18:72) and administered to the animals in 100 μl aliquots 5× per week beginning 7 days after cells were transplanted into mice. Control dosage was performed under the same schedule.
Throughout the entire study, clinical observations were conducted daily for signs of leukemia development, including lethargy, ruffled fur, lack of responsiveness to stimuli, weight loss, and becoming moribund. On Day 21 after cell inoculation, blood samples were drawn from all groups. The white blood cells of all the blood samples were measured with a Nucleo Counter (ChemMetec, Denmark). […]
After 14 days of treatment, blood samples were taken from all the mice via orbital bleeding while mice were anesthetized using isoflurane inhalation. […] The number of white blood cells was then counted by standard methods.

NCI H929 tumors = test: NCI H929 human myeloma xenograft model in mice; format: in vivo, mouse; details: bortezomib 1 mg/kg i.p. once every 3 days for 15 days; vehicle 2300 mm^3
Experimental: Cell Culture: Tumor cell line NCI H929 was cultured according to ATCC recommendations in […] containing 10% fetal bovine serum and pen-strep. On the day of implantation, cells were washed 1× with phosphate buffered saline (PBS) and harvested via centrifugation. Cells were pelleted (5 min at 1000 rpm, RT) then resuspended in serum-free matrigel and kept on ice until implantation.
Tumor Cell Implantation: The cell line was implanted via subcutaneous injection on the right rear flank at a volume of 200 μl containing 3×10^7 cells per mouse; the injection site was cleaned using alcohol before and after injection to prevent any infection.
Tumor Assessment: Beginning 1 week post cell implantation all animals were weighed and tagged and tumors were measured and body weights taken 3 times weekly (length×width×height) on Monday, Wednesday, and Friday for the duration of study. Once an average tumor volume of 100-200 mm^3 was reached, animals were randomized and placed into 4 treatment groups of a minimum of 10 mice per group based on tumor size. Randomization was determined by tumor volume (length×width×height)[…] for all of the mice and average volume was calculated using a average function in Excel (Microsoft Professional).
Treatment: The study involved 4 groups of 10 animals per group. Animals in all dose groups were weighed on days of tumor measurement. All doses were administered i.p. at 10 mL/kg. The Bortezormib (1 mg/kg) group was once every 3 days for 15 days. The mice receiving vehicle and compound II-19 were dosed every second day. Compound II-19 was formulated in 1% DMSO, 10 mM Tris pH 8, 30% hydroxypropyl-beta-cyclodextrin; this vehicle was used as the “vehicle” control. Bortezomib was formulated in 30% propylene glycol, 5% Tween 80, 3.3% dextrose in water, pH 4, 1% DMSO.

[5] = fluorescent polarisation assay of Examples 2 and 3, read-out: IC50, inhibition of MCL1
[6] = fluorescence polarization, Bim-BH3-FITC peptide, GST-Mcl-1, read-out: IC50, inhibition of Bim-BH3 peptide binding to Mcl-1

T1 sequence (Q07820 whole entry): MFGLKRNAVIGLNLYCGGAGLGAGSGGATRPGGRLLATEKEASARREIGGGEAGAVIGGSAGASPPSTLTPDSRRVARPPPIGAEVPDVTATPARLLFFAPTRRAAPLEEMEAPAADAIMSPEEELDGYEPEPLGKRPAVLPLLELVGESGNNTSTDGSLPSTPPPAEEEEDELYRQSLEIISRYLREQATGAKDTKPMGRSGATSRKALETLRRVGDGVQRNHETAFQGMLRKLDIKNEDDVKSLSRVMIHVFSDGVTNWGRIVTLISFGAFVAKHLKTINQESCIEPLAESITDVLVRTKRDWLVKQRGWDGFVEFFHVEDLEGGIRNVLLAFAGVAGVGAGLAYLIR
T2 sequence (Q07817 whole entry): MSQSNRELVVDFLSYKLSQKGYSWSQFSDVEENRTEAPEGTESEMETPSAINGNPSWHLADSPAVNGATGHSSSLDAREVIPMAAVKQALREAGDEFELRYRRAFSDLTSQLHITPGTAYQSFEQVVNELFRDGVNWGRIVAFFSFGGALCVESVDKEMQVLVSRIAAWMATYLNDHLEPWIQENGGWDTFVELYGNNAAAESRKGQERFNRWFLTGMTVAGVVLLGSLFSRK

IC50 (Mcl-1; [5]): < 50000 nM
Compound: COc1cc(-c2ccc(Nc3cnccc3C(=O)O)c(OC)c2)ccc1Nc1ccccc1C(=O)O [Ic-8]

IC50 (Mcl-1; [5]): < 50000 nM
Compound: COc1cc(-c2ccc(Nc3ccc(C)cc3C(=O)O)c(OC)c2)ccc1Nc1ccc(C)cc1C(=O)O [Ic-17, 6,6′-((3,3′-dimethoxy-[1,1′-biphenyl]-4,4′-diyl)bis(azanediyl))bis(3-methylbenzoic acid)]

IC50 (Mcl-1; [5]): < 50000 nM
Compound: COc1ccc(C(=O)O)c(Nc2ccc(-c3ccc(Nc4cc(OC)ccc4C(=O)O)c(OC)c3)cc2OC)c1 [Ic-18, 2,2′-((3,3′-dimethoxy-[1,1′-biphenyl]-4,4′-diyl)bis(azanediyl))bis(4-methoxybenzoic acid)]

IC50 (Mcl-1; [5]): < 50000 nM
Compound: COc1cc(-c2ccc(Nc3ccc(C)cc3C(=O)O)c(OC)c2)ccc1Nc1ccccc1C(=O)O [Ic-7, 2-((4′-((2-carboxyphenyl)amino)-3,3′-dimethoxy-[1,1′-biphenyl]-4-Yl)amino)-5-methylbenzoic acid]

IC50 (Mcl-1; [5]): < 50000 nM
Compound: COc1cc(-c2ccc(Nc3cccc(C(=O)O)c3)c(OC)c2)ccc1Nc1cccc(C(=O)O)c1 [Ic-1, 3,3′-((3,3′-dimethoxy-[1,1′-bipenyl]-4,4′-diyl)bis(azanediyl))dibenzoic acid]

The next lines start with the compound.

Compound: COC1=CC(c2cc3ccccc3[nH]2)=N/C1=C\c1[nH]c(C)cc1C [obatoclax, reference compound]
EC50 ([1]; read-out: EC50 in NCI-H929 (obatoclax)): 1800 nM
EC50 ([2]; read-out: EC50 in SUDHL-6 (obatoclax)): 2500 nM
EC50 (SUDHL-10 cell line; read-out: EC50 in SUDHL-10 (obatoclax)): 800 nM

Compound: O=C(O)c1ccccc1Nc1ccc(-c2ccc(Nc3ccccc3C(=O)O)c(O)c2)cc1O [Ic-6, 2,2′-((3,3′-dihydroxy-[1,1′-biphenyl]-4,4′-diyl)bis(azanediyl))dibenzoic acid]
IC50 (Mcl-1; [5]): < 50000 nM

Compound: COC(=O)c1ccc(O)c2nc3c(CO)c(O)c(-c4c(O)c(CO)c5nc6c(O)ccc(C(=O)OC)c6nc5c4O)c(O)c3nc12 [II-20, dimethyl 1,1′,3,3′,6,6′-hexahydroxy-4,4′-bis(hydroxymethyl)-[2,2′-biphenazine]-9,9′-dicarboxylate]
EC50 ([2]; read-out: EC50, cell killing in SUDHL-6): 9700 nM
EC50 (SUDHL-10 cell line; read-out: EC50, cell killing in SUDHL-10): > 25000 nM
IC50 (Mcl-1; [6]): 27 nM
preference for inhibition of Mcl-1 vs. Bcl-xL (Mcl-1; ratio of FP IC50 values): ~5 fold
IC50 (Bcl-xL): 122 nM

Compound: COc1cc(-c2ccc(Nc3ccccc3C(=O)O)c(OC)c2)ccc1Nc1ccccc1C(=O)O [Compound A, redoxal]
EC50 ([1]; read-out: EC50, cell killing in NCI-H929): 1000 nM
tolerability of the high dose [3]: well-tolerated
microsome stability (Microsome stability): excellent
plasma clearance ([4]; 10 mg/kg): 1.3 mL/min/kg
plasma clearance ([4]; 19 mg/kg as printed): 1.3 mL/min/kg
half-life ([4]; 10 mg/kg): 2.1 h
half-life ([4]; 19 mg/kg as printed): 2.1 h
survival outcome vs vehicle control (CCRF-CEM cells): statistically significant; also recorded: significantly improved
white blood cells vs vehicle control (CCRF-CEM cells; after 14 days of treatment (Day 21), P<0.02 Students' t test): significantly reduced
mice still alive on Day 31 (CCRF-CEM cells; all vehicle mice died by Day 31): 60%
IC50 (Mcl-1; [6]): < 500 nM and 480 nM
IC50 (Bcl-xL): > 16000 nM

Compound: CC(C)C[C@H](NC(=O)[C@H](Cc1ccccc1)NC(=O)c1cnccn1)B(O)O [bortezomib, reference compound]
average tumor volume at the end of the study (NCI H929 tumors): 1180 mm^3
